≈ marks a conversion by molar mass, not a printed value. Where “and” joins values, the source holds several entries; their conditions need not be identical. Equal entries are not always repeated.
Legend:
human red blood cells = assay: Hemolytic activity on human red blood cells; conditions: for HC50: 50% hemolysis of human red blood cells after 18 h at 37° C.; for HC50 Fold Decrease: same peptide with and without specificity determinants
Experimental: For comparison, the inventors also determined the hemolytic activity after 18 hours at 37° C. Hemolysis can be determined with red blood cells (RBC) from various species including human red blood cells (hRBC).
The coupling procedure used 5 equivalents of Fmoc-D-amino acid or Fmoc-L-amino acid and HCTU (O-(1H-6-chlorobenzotriazole-1-yl)-1,1,3,3-tetramethyluronium hexafluorophosphate) and 6-Cl-HOBt (1-hydroxy-6-chloro-benztriazole) at 4.5 equivalents in DMF (Fisher Scientific, Denver, Colo.) and N-diisopropylethylamine (DIPEA) 10 equivalents (Oakwood Products, Inc., Estill, S.C.) in N-methyl-2-pyrrolidinone (NMP) (Fisher Scientific, Denver, Colo.) with the first and second couplings at room temperature for 30 min each. The deprotection procedure (removal of Fmoc protecting group) was carried out by treatment of the resin with 0.1 M HOBt (1-hydroxybenzotriazole) in DMF with 20% piperidine for 30 min. […] The resin was removed by filtration and peptide was precipitated with ice-cooled ethyl ether on ice for 15 min. Ether was decanted, the peptide was washed twice with ether and redissolved in acetonitrile/water (1:1, with 0.2% TFA) and the solution lyophilized to obtain the crude peptide. • Analytical and Preparative Purification by Reversed-Phase Chromatography: Analytical RP-HPLC: Column, Luna C18 (2), 250×4.6 mm I.D., 5 μm particle size, 100 Å pore size from Phenomenex (Torrance, Calif.). Run conditions: linear AB gradient (1% acetonitrile/min, starting from 2% acetonitrile) at a flow-rate of 1 ml/min, where eluent A is 0.2% aq. TFA and eluent B is 0.18% TFA in acetonitrile; temperature, 30° C. Preparative RP-HPLC: Peptides were dissolved in 0.2% aq. TFA containing 2% acetonitrile to a final concentration of 10 mg/ml. Following filtration through a 0.45 μm Millipore filter and subsequently through a 0.22 μm filter, the peptide solutions were loaded onto the column via multiple 20-ml injections into a 20-ml injection loop at a flow-rate of 10 ml/min. Column, Luna C18 (2), 250×30 mm I.D., 5 um particle size, 100 Å pore size from Phenomenex. Run conditions: 2% acetonitrile/min gradient up to an acetonitrile concentration 10% below that required to elute the peptide during analytical RP-HPLC, then shallow gradient elution (0.05% or 0.1% acetonitrile/min depending on the complexity of impurities near the product of interest on the analytical run of the crude peptide) at a flow-rate of 10 ml/min (same eluents as shown above for analytical RP-HPLC); at room temperature. • Temperature Profiling of Peptides on Reversed-phase HPLC to Measure Dimerization and Oligomerization: Purified peptides were analyzed on an Agilent 1200 series liquid chromatograph for temperature profiling using a Zorbax 300 SB-C8 column (150 mm×2.1 mm I.D.; 5 μm particle size, 300 Å pore size) from Agilent Technologies. […] Temperature profiling was carried out on peptide mixtures run at each temperature in 2° C. increments from 5° C. to 41° C. and 10° C. increments from 5° C. to 75° C. Twenty minutes was allowed between runs for temperature equilibration. • Characterization of Helical Structure: The mean residue molar ellipticities of peptides were determined by circular dichroism (CD) spectroscopy, using a Jasco J-815 spectropolarimeter (Jasco Inc. Easton, Md., USA) at 5° C. under KP buffer (50 mM NaH2PO4/Na2HPO4/100 mM KCl, pH 7.0) as well as in the presence of an α-helix inducing solvent, 2,2,2-trifluoroethanol, TFE, (50 mM NaH2PO4/Na2HPO4/100 mM KCl, pH 7.0 buffer/50% TFE). A 10-fold dilution of an approximately 500 μM stock solution of the peptide analogs was loaded into a 0.1 cm quartz cell and its ellipticity scanned from 195 to 250 nm.

[1] = Helical structure by circular dichroism spectroscopy; format: physicochemical; conditions: for Aqueous pH 7 [θ]222: 100 mM KCl, 50 mM Na2HPO4/NaH2PO4, pH 7.0; for Aqueous pH 7 [θ]222 / 50% TFE [θ]222: 222 nm; for 50% TFE [θ]222: aqueous buffer containing 50% trifluoroethanol; for Δ[Θ]222 TFE-aqueous: difference 50% TFE minus aqueous; for % Helix Induced: increase in molar ellipticity in the presence of 50% TFE; for Aqueous pH 7 % Helix: relative to molar ellipticity of the peptide in 50% TFE
A. baumannii strain 649 = format: cell-based, Acinetobacter baumannii; conditions: for fold loss of antimicrobial activity in 25% human sera: 25% human sera versus no serum; for MIC 25% human serum: MH medium supplemented with 25% (v/v) human sera; for MIC No serum: MH medium
Experimental: Hemoglobin release was determined spectrophotometrically at 570 nm.
Because only unbound AMP is available to interact with the therapeutic target, the extent of binding between AMPs and serum proteins can have significant effects on efficacy of these drugs. […] This assay estimates the in vivo bioavailability of our AMPs. […] An increase in MIC in the presence of serum is attributed to inhibition of antimicrobial activity due to binding to serum proteins.

| SMILES | HC50 (human red blood cells) | HC50 Fold Decrease (human red blood cells) | Aqueous pH 7 [θ]222 [1] | 50% TFE [θ]222 [1] | Δ[Θ]222 TFE-aqueous [1] | % Helix Induced [1] [%] | Aqueous pH 7 % Helix [1] [%] | fold loss of antimicrobial activity in 25% human sera (A. baumannii strain 649) [fold] | MIC 25% human serum (A. baumannii strain 649) [µM] | MIC No serum (A. baumannii strain 649) [µM] |
| --- | --- | --- | --- | --- | --- | --- | --- | --- | --- | --- |
| CC(=O)N[C@H](CCCCN)C(=O)N[C@H](CC(C)C)C(=O)N[C@H](CCN)C(=O)N[C@H](CO)C(=O)N[C@H](CC(C)C)C(=O)N[C@H](CC(C)C)C(=O)N[C@H](CCN)C(=O)N[C@@H](C(=O)N[C@H](CC(C)C)C(=O)N[C@H](CO)C(=O)N[C@H](CCN)C(=O)N[C@H](C)C(=O)N[C@H](C)C(=O)N[C@H](C)C(=O)N[C@H](C)C(=O)N[C@H](C)C(=O)N[C@H](CC(C)C)C(=O)N[C@H](CCN)C(=O)N[C@@H](C(=O)N[C@H](CC(C)C)C(=O)N[C@H](CC(C)C)C(=O)N[C@H](CCN)C(=O)N[C@H](C)C(=O)N[C@H](CC(C)C)C(=O)N[C@H](CO)C(=O)N[C@H](CCN)C(N)=O)[C@H](C)O)[C@H](C)O [D86(K13A/K16A)-(Lys^1-6Dab-1), Ac-KL(Dab)SLL(Dab)TLS(Dab)AAAAAL(Dab)TLL(Dab)ALS(Dab)-amide] | 20.0 μg/mL and 7.7 μM | >−96.4 | 2,308 mdeg cm^2/(dmol*res) | 18,731 mdeg cm^2/(dmol*res) | 16,423 mdeg cm^2/(dmol*res) | 88 | 12 | 4 | 3.0 (≈ 7.75 µg/mL) | 0.8 (≈ 2.07 µg/mL) |
| CC(=O)N[C@H](CCCCN)C(=O)N[C@H](CC(C)C)C(=O)N[C@H](CN)C(=O)N[C@H](CO)C(=O)N[C@H](CC(C)C)C(=O)N[C@H](CC(C)C)C(=O)N[C@H](CN)C(=O)N[C@@H](C(=O)N[C@H](CC(C)C)C(=O)N[C@H](CO)C(=O)N[C@H](CN)C(=O)N[C@H](C)C(=O)N[C@H](C)C(=O)N[C@H](C)C(=O)N[C@H](C)C(=O)N[C@H](C)C(=O)N[C@H](CC(C)C)C(=O)N[C@H](CN)C(=O)N[C@@H](C(=O)N[C@H](CC(C)C)C(=O)N[C@H](CC(C)C)C(=O)N[C@H](CN)C(=O)N[C@H](C)C(=O)N[C@H](CC(C)C)C(=O)N[C@H](CO)C(=O)N[C@H](CN)C(N)=O)[C@H](C)O)[C@H](C)O [D105(K13A/K16A)-(Lys^1-6Dap-1), Ac-KL(Dap)SLL(Dap)TLS(Dap)AAAAAL(Dap)TLL(Dap)ALS(Dap)-amide] | 7.2 μg/mL and 2.9 μM | >−395.9 | 9,577 mdeg cm^2/(dmol*res) | 18,038 mdeg cm^2/(dmol*res) | 8,461 mdeg cm^2/(dmol*res) | 47 | 53 | 15 | 12.5 (≈ 31.2 µg/mL) | 0.8 (≈ 2 µg/mL) |

Reference: patent publication US20220105150A1, “AMPHIPATHIC ALPHA-HELICAL ANTIMICROBIAL PEPTIDES TREAT INFECTIONS BY GRAM-NEGATIVE PATHOGENS” (priority 2019, published 2022)
